From patent US10590084B2, “Cyclic keto-amide compounds as calpain modulators and methods of production and use thereof” (Blade Therapeutics, Inc., priority 2016, dated 2020)

Tests used:
Human Calpain 1/NS1 = molecular target: T1, Human Calpain 1/NS1 (Homo sapiens, UniProt P07384); experiment: Biochemical inhibition of Calpain 1, continuous fluorescence (FRET) assay; settings: mean; class symbols; read-out: Human Calpain 1/NS1 IC50 (nM)_MEAN
T1 sequence (P07384 1-714): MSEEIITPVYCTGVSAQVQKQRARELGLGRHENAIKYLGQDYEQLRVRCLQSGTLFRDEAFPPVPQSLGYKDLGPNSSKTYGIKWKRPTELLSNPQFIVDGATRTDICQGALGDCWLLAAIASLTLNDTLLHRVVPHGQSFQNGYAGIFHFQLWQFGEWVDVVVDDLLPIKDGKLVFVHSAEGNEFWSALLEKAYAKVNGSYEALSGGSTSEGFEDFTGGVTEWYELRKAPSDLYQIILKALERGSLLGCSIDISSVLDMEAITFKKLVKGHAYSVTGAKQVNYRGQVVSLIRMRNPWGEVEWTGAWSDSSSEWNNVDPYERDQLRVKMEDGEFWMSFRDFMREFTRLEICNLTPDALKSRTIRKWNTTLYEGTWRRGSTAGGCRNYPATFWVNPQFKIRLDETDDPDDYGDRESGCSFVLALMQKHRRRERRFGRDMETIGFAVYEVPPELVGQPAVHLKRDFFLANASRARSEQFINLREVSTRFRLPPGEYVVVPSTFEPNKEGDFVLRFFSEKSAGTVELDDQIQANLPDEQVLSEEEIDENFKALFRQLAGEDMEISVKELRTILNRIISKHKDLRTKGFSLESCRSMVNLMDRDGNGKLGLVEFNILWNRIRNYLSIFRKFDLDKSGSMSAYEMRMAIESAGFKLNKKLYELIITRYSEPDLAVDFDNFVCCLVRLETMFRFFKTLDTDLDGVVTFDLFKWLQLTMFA
T1 sequence (P04632 1-268 partner): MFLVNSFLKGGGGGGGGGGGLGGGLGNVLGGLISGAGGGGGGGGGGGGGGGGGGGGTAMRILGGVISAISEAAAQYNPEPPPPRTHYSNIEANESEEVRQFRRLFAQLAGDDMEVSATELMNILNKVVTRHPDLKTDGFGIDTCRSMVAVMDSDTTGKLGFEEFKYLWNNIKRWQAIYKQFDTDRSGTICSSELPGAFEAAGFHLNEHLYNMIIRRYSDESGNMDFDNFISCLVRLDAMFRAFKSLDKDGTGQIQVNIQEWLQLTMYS
Protocol: (§1) Biochemical inhibition of Calpains 1, 2, and 9.
(§2) Calpains 1, 2, and 9 activity and inhibition thereof are assessed by means of a continuous fluorescence assay. The SensoLyte 520 Calpain substrate (Anaspec Inc) is optimized for detecting calpain activity. This substrate contains a novel internally quenched 5-FAM/QXLTM 520 FRET pair. Calpains 1, 2 and 9 cleave the FRET substrate into two separate fragments resulting in an increase of 5-FAM fluorescence that is proportional to calpain activity.
(§3) Assays are typically setup in black 384-well plates using automated liquid handling as follows. Calpain assay base buffer typically contains 50 mM Tris, pH 7.5, 100 mM NaCl and 1 mM DTT. Inhibitors are serially diluted in DMSO and used to setup 2× mixtures with calpains in the aforementioned buffer. After incubation at ambient temperature (25 C), the reaction is initiated by adding a 2× mix of the fluorescent peptide substrate and CaCl2 (required for in-situ calpain activation) in the same buffer. Reaction progress curve data are typically collected for 10 min using excitation/emission wavelengths of 490 nm/520 nm on SpectraMax i3x or the FLIPR-Tetra plate readers (Molecular Devices Inc). Reaction rates were calculated from progress curve slopes typically over 1-5 min. Dose response curves (rate vs. log inhibitor concentration) were typically fit to a 4-parameter logistic function to extract IC50 values.
Column A: Human Calpain 1/NS1 IC50 (nM)_MEAN

Human Calpain 2/NS1 = molecular target: T2, Human Calpain 2/NS1 (Homo sapiens, UniProt P17655); experiment: Biochemical inhibition of Calpain 2, continuous fluorescence (FRET) assay; settings: mean; class symbols; read-out: Human Calpain 2/NS1 IC50 (nM)_MEAN
T2 sequence (P17655 1-700): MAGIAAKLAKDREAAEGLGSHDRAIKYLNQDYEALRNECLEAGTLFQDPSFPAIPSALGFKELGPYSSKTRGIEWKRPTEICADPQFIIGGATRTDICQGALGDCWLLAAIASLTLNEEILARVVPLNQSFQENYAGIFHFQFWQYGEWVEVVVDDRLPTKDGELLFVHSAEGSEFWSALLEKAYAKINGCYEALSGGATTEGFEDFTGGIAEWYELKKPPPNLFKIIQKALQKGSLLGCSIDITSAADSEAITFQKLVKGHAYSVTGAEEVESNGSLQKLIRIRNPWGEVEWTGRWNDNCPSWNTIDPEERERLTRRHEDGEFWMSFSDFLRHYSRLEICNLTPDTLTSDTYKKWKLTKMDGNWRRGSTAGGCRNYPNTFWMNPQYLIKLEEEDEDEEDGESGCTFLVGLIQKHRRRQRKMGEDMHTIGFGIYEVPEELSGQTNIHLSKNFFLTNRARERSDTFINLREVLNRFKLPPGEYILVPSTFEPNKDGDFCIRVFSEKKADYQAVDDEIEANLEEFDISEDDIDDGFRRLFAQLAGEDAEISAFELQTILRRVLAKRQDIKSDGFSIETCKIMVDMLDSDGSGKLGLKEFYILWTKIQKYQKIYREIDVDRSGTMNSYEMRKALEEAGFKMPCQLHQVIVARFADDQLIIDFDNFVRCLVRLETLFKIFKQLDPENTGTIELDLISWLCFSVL
T2 sequence (P04632 1-268 partner): T1 sequence (P04632 1-268 partner)
Protocol: as §1, §2, §3
Column B: Human Calpain 2/NS1 IC50 (nM)_MEAN

Human Calpain 9/NS1 = molecular target: T3, Human Calpain 9/NS1 (Homo sapiens, UniProt O14815); experiment: Biochemical inhibition of Calpain 9, continuous fluorescence (FRET) assay; settings: mean; class symbols; read-out: Human Calpain 9/NS1 IC50 (nM)_MEAN
T3 sequence (O14815 1-690): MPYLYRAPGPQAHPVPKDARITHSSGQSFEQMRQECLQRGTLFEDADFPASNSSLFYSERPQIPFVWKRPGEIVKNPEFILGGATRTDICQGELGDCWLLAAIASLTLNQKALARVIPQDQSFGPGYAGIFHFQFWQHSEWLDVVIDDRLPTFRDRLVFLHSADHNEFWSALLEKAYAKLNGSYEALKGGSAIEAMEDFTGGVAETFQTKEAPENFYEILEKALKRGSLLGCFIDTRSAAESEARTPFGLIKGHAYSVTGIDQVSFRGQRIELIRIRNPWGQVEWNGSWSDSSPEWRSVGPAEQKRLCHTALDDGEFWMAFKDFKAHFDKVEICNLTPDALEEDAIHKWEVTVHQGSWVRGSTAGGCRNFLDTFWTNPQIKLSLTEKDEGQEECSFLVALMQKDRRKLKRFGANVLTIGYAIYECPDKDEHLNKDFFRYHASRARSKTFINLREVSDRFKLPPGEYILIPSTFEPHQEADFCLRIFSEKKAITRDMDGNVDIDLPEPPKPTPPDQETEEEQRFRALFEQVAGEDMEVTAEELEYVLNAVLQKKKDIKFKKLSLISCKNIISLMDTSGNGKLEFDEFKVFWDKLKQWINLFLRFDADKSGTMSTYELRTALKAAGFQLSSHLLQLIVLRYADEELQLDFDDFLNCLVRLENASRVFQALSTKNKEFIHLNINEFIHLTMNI
T3 sequence (P04632 1-268 partner): T1 sequence (P04632 1-268 partner)
Protocol: as §1, §2, §3
Column C: Human Calpain 9/NS1 IC50 (nM)_MEAN • A: <3 uM; • B: 3-10 uM; • C: >10 uM;

Structure (SMILES) | IC50 (Human Calpain 1/NS1) | IC50 (Human Calpain 2/NS1) | IC50 (Human Calpain 9/NS1)
CC(C)[C@H](NC(=O)OCc1ccccc1)C(=O)NC1CCNC(=O)C1=O (stereo partly drawn) [Compound 5] | > 10000 nM | > 10000 nM | > 10000 nM
CC(C)C[C@H](NC(=O)[C@@H](NC(=O)OCc1ccccc1)C(C)C)C(=O)NC1CCCNC(=O)C1=O (stereo partly drawn) [Compound 2] | > 10000 nM | 3000 to 10000 nM | > 10000 nM
CC(C)[C@H](NC(=O)OCc1ccccc1)C(=O)NC1CCCN(C)C(=O)C1=O (stereo partly drawn) [Compound 6] | > 10000 nM | > 10000 nM | > 10000 nM
CC(C)[C@H](NS(=O)(=O)c1ccc(F)cc1)C(=O)NC1CCCNC(=O)C1=O (stereo partly drawn) [Compound 3] | > 10000 nM | > 10000 nM | > 10000 nM

More lines, now with the values ahead:

IC50 (Human Calpain 1/NS1) | IC50 (Human Calpain 2/NS1) | IC50 (Human Calpain 9/NS1) | Structure (SMILES)
< 3000 nM | < 3000 nM | < 3000 nM | CC(C)[C@H](NC(=O)OCc1ccccc1)C(=O)NC1CCCCCCNC(=O)C1=O (stereo partly drawn) [Compound 4]
< 3000 nM | < 3000 nM | < 3000 nM | CC(C)[C@H](NC(=O)OCc1ccccc1)C(=O)N[C@H]1CCCCCCCNC(=O)C1=O [Compound 9]
3000 to 10000 nM | 3000 to 10000 nM | > 10000 nM | CC(C)[C@H](NC(=O)OCc1ccccc1)C(=O)NC1CCCNC(=O)C1=O (stereo partly drawn) [Compound 1]
3000 to 10000 nM | < 3000 nM | < 3000 nM | O=C1NCCCCCC[C@H](NC(=O)c2ccccc2-c2ccccc2)C1=O [Compound 8]
